Test results reported in the SangsterLogP compilation.

| logP | SMILES |
| --- | --- |
| 0.17 | Cc1cnc(NS(=O)(=O)c2ccc(N)cc2)nc1 |
| 0.84 | CCc1cnc(NS(=O)(=O)c2ccc(N)cc2)nc1 |
| 0.15 | N#Cc1cccnc1NS(=O)(=O)c1ccc(N)cc1 |
| 2.3 | Nc1ccc(S(=O)(=O)Nc2ccc(Br)cn2)cc1 |
| 2.03 | Cc1ccccc1NS(=O)(=O)c1ccc(N)cc1 |
| 1.24 | Nc1ccc(S(=O)(=O)Nc2ncccc2Br)cc1 |
| 2.74 | Nc1ccc(S(=O)(=O)Nc2ncc(Br)cc2Br)cc1 |
| 1.76 | Nc1ccc(S(=O)(=O)Nc2ccccc2[N+](=O)[O-])cc1 |
| 1.82 | Nc1ccc(S(=O)(=O)Nc2ccc(Cl)cn2)cc1 |
| 1.97 | Nc1ccc(S(=O)(=O)Nc2ncc(Cl)cc2Cl)cc1 |
| 1.23 | CN(C)c1ccc(NS(=O)(=O)c2ccc(N)cc2)nc1 |
| 1.56 | COc1ccccc1NS(=O)(=O)c1ccc(N)cc1 |
| 2 | Nc1ccc(S(=O)(=O)Nc2ccccc2Cl)cc1 |
| 0.26 | Cc1cccnc1NS(=O)(=O)c1ccc(N)cc1 |
| 0.49 | Cc1ccc(NS(=O)(=O)c2ccc(N)cc2)nc1 |
| 0.82 | Nc1ccc(S(=O)(=O)Nc2ncccc2Cl)cc1 |
| 1.79 | Cc1cnc(NS(=O)(=O)c2ccc(N)cc2)c(Br)c1 |
| 1.58 | Nc1ccc(S(=O)(=O)Nc2cccnc2Cl)cc1 |
| 2.24 | Nc1ccc(S(=O)(=O)Nc2ccc(Cl)nc2)cc1 |
| 2.05 | Cc1cc(Br)cnc1NS(=O)(=O)c1ccc(N)cc1 |
